Experimental findings from PubChem BioAssay AID1996 are described below.

SMILES strings stand for the structures. Converted amounts (≈) assume the structure as drawn. A value given as a limit tells only on which side of the number the result lay.

For this data set the following is noted: buffer; pH 7.4; 200.0 µM.
A word on the kinetic solubility: it is solubility judged after dilution from a stock solution rather than from solid. In turn, `Cn1c(O)c(/C=N/N2CCOCC2)c(=O)n(-c2ccccc2)c1=S` had a solubility (kinetic) above 52 µg/mL. Under `O=[N+]([O-])c1ccc(CN2CC=C(c3ccccc3)CC2)cc1` stands 6.8 µg/mL (≈ 23.1 µM). Regarding `Clc1ccc(Cn2ccnc2)cn1`, the kinetic solubility was found to be 24.2 µg/mL (≈ 125 µM). `Cc1ccc(CN(C)C(=O)CCc2c[nH]c3ccccc23)o1` registered a solubility (kinetic) of 6.5 µg/mL (≈ 21.9 µM). `CC1(C)Cc2c(c(-c3ccccc3)nc3sc4c(=O)[nH]c(=S)[nH]c4c23)CO1` returned a kinetic solubility of 10.5 µg/mL (≈ 26.5 µM). For `COc1ccc(OC)c(N/C(=N/c2nc(C)cc(C)n2)NC(C)=O)c1`, the solubility (kinetic) worked out at 0.6 µg/mL (≈ 1.75 µM). For the compound `CCn1c(=O)c2cc(C(=O)NCCC(C)C)sc2c2ccccc21`, the kinetic solubility is below 0.4 µg/mL.

On to `Cc1cccc(NC(=O)N2CCC(NC(=O)C3CCCCC3)CC2)c1`, for which the solubility (kinetic) is 1.6 µg/mL (≈ 4.66 µM). As for `CCOc1ccc(C(C)NC(=O)Nc2ccc(F)cc2F)cc1` (centres undefined), the kinetic solubility was 1.8 µg/mL (≈ 5.62 µM). On to `CCn1c(/C=C/c2ccc(F)cc2)nc2ccccc2c1=O`, for which the kinetic solubility came to 1.6 µg/mL (≈ 5.44 µM).

The compound `O=C(COC(=O)/C=C/c1ccc(C(F)(F)F)cc1)NC1CCCC1` showed a solubility (kinetic) below 0.7 µg/mL. Turning to `O=C(c1ccc([N+](=O)[O-])cc1)c1cc2ccc(O)cc2oc1=O`, the kinetic solubility was found to be 2 µg/mL (≈ 6.43 µM). `O=Nc1[nH]c(=O)c(/C=C(\O)c2ccccc2)nc1NO` had a solubility (kinetic) of 33.8 µg/mL (≈ 123 µM). The compound `O=C(CN1CCN(Cc2ccccc2F)C1=O)NCC1CCCO1` (centres undefined) gave a solubility (kinetic) above 50.3 µg/mL. Under `O=C(NN1CCOCC1)c1ccc(Br)s1` stands above 43.7 µg/mL; under `O=C(OCc1ccc([N+](=O)[O-])cc1Cl)c1cnccn1`, above 44.1 µg/mL; under `O=C(NC(=S)NC1CCC(O)CC1)c1ccco1` (centres undefined), above 40.2 µg/mL. In the case of `O=C(Nc1c(S(=O)(=O)c2ccccc2)csc1Br)c1ccccc1Cl`, the kinetic solubility came out at 42.9 µg/mL (≈ 93.9 µM). As to `CC(=O)Nc1cccc(C(=O)Nc2cccc3ncccc23)c1`, the solubility (kinetic) amounted to 40.3 µg/mL (≈ 132 µM). The same measure for `COc1cc2c(cc1OC)C(c1ccccc1O)NCC2` (centres undefined): 37.3 µg/mL (≈ 131 µM); for `O=C(Cc1ccccc1)N/N=C/c1cccnc1`: above 35.9 µg/mL; for `COC(=O)c1ccncc1C(=O)Nc1ccc(OC)cc1`: 39.4 µg/mL (≈ 138 µM). As to `CC(=O)c1cccc(Nc2nc(-c3sc(N)nc3C)cs2)c1`, the solubility (kinetic) turned out to be 4.5 µg/mL (≈ 13.6 µM). `O=C(Nc1ccccc1)c1ccco1` came in with a kinetic solubility above 28.1 µg/mL. `CCN(CC)c1c([N+](=O)[O-])c(=O)n(CC)c2ccccc12` gave a solubility (kinetic) of 32.4 µg/mL (≈ 112 µM). Under `CC(C)CCNC(=O)CCCCn1c(=O)[nH]c2ccsc2c1=O` stands 47.1 µg/mL (≈ 140 µM); under `COc1cccc(CNC(=O)CCCNC(=O)c2ccc(Cl)cc2)c1`, 37.8 µg/mL (≈ 105 µM); under `COc1ccccc1Nc1ncnc2sccc12`, 30.1 µg/mL (≈ 117 µM). `O=S(=O)(Nc1ccc(Br)cc1)c1cccc2nonc12`: the kinetic solubility is above 53.1 µg/mL.

Regarding `COc1ccccc1COC(=O)N/C=C/c1ccco1`, the solubility (kinetic) was 18.3 µg/mL (≈ 67 µM). With `CCOCCCNC(=O)c1cc2c(=O)[nH]c3ccccc3c2s1`, the kinetic solubility is 1.7 µg/mL (≈ 5.15 µM). `CCn1ccc(C(=O)Nc2ncc(C)s2)n1` showed a kinetic solubility above 35.4 µg/mL. The same measure for `Cc1ccc(OC(=O)c2ccc(Cl)c([N+](=O)[O-])c2)cn1`: 42.8 µg/mL (≈ 146 µM); for `COc1cccc(-n2ccnc2SCC(=O)Nc2cc(C)on2)c1`: 37.5 µg/mL (≈ 109 µM); for `O=C1NC(c2ccc(F)cc2)Oc2ccccc21` (centres undefined): 6.4 µg/mL (≈ 26.3 µM).

Regarding `Cc1ccc(C)c(-c2csc(NC(=O)c3c(C)noc3C)n2)c1`, the kinetic solubility amounted to 2.1 µg/mL (≈ 6.41 µM).

`CCN(CC)CCNC(=O)C(Oc1ccccc1)Oc1ccccc1` yielded a solubility (kinetic) of 45.8 µg/mL (≈ 134 µM). The same measure for `O=C(NCCc1ccc(F)cc1)c1cc2ccccc2oc1=O`: below 0.7 µg/mL; for `CCOc1ccc(S(=O)(=O)NCCC(=O)N2CCCN(C)CC2)cc1`: 50.4 µg/mL (≈ 136 µM). For `COc1ccc(C(=O)NCCCSc2ccccc2)cc1F`, the kinetic solubility came out at 2.5 µg/mL (≈ 7.83 µM). Compound `CNc1nc2c(Cl)cc(Cl)cc2s1` gave a kinetic solubility below 0.2 µg/mL.

`COc1cc(C)c(NC(=O)C(=S)NCc2ccccc2)cc1C` registered a kinetic solubility below 0.4 µg/mL. `CC(C)c1ccc(NC(=O)COc2ccccc2)cc1` displayed a kinetic solubility of 10.1 µg/mL (≈ 37.5 µM). `Cc1ccc(NS(=O)(=O)c2ccc3c(c2)NC(=O)CO3)cc1` returned a kinetic solubility of 10.7 µg/mL (≈ 33.6 µM).

In turn, `Cc1cc(C)cc(CN2C(=O)NC3(CCCCCC3)C2=O)c1` returned a kinetic solubility of 18.1 µg/mL (≈ 60.3 µM). The same measure for `Cc1nc(NC(=O)COC(=O)[C@@H](NC(=O)c2ccco2)C(C)C)c(Cl)cc1Cl`: above 64.2 µg/mL; for `COC(=O)c1ccccc1NC(=S)N(C)C`: 34.2 µg/mL (≈ 144 µM); for `O=[N+]([O-])c1ccc(NCCCN2CCOCC2)nc1`: above 39.9 µg/mL. On to `COc1ccc(S(=O)(=O)NC2CCCCCC2)c(OC)c1`, for which the solubility (kinetic) is 9.4 µg/mL (≈ 30 µM). `Cc1cc(C)c(S(=O)(=O)c2cc(F)ccc2C)c(Cl)n1`: the kinetic solubility came to 44.6 µg/mL (≈ 142 µM). As to `CN1CCN(S(=O)(=O)Cc2ccccc2Cl)CC1`, the solubility (kinetic) was above 43.3 µg/mL.

In turn, `Cl.c1ccc2c3c([nH]c2c1)CCNC3` gave a solubility (kinetic) above 31.3 µg/mL. For `CCOc1ccc(NC(=O)NC2CCS(=O)(=O)C2)cc1` (centres undefined), the solubility (kinetic) is above 44.8 µg/mL. In turn, `Cc1ccc2nc(Nc3ccccc3)cc(C)c2c1` gave a kinetic solubility of 3.9 µg/mL (≈ 15.7 µM). `Cc1cc2nc(/N=C(\N)NC(=O)C(C)C)nc(C)c2cc1C`: the kinetic solubility came to 2.9 µg/mL (≈ 9.69 µM). For `COc1ccccc1S(=O)(=O)N1CCn2cccc2C1C` (centres undefined), the kinetic solubility is above 46 µg/mL. Turning to `CCOC(=O)CCn1cc(F)c(=O)[nH]c1=O`, the solubility (kinetic) was above 34.5 µg/mL.

Consider `CN(CC(=O)Nc1ccccc1Br)C(=O)CN1CCN(Cc2cccc(Cl)c2)CC1`, for which the kinetic solubility is above 74.1 µg/mL. Take `CC(=O)N1CCC2(CC1)NC(=O)N(c1ccccc1)N2`: the solubility (kinetic) was above 41.1 µg/mL. The same measure for `Cc1cccn2cc(-c3ccc4c(c3)NC(=O)CO4)nc12`: 7.9 µg/mL (≈ 28.3 µM); for `COc1ccc(-c2csc(NC(=O)c3ccoc3C)n2)cc1`: below 0.3 µg/mL. Compound `Cc1cccc(OCC(=O)Nc2ccncc2)c1` displayed a solubility (kinetic) above 36.3 µg/mL. The same measure for `COc1cc(C(=O)OC2CCOC2=O)c([N+](=O)[O-])cc1OC` (centres undefined): above 46.7 µg/mL; for `O=C(Nc1cc(Cl)ccc1N1CCOCC1)C1CC1`: above 42.1 µg/mL; for `CN(CC(=O)NCCc1ccc(S(N)(=O)=O)cc1)CC(=O)Nc1ccc(Cl)cc1`: above 65.8 µg/mL. The same measure for `Cc1noc(NS(=O)(=O)c2ccc(NC(=O)c3cc4ccccc4o3)cc2)c1C`: 61.6 µg/mL (≈ 150 µM); for `CCOC(=O)c1[nH]cnc1C(=O)Nc1ccc(Cl)cc1`: 2.2 µg/mL (≈ 7.49 µM).

On to `Cc1cccc(-n2c(=S)[nH]c3nc4c(cc3c2=O)COC(C)(C)C4)c1`, for which the kinetic solubility was 1.7 µg/mL (≈ 4.81 µM). `Cn1c(=O)n(C)c2cc(NC(=O)Cc3ccccc3[N+](=O)[O-])ccc21` yielded a kinetic solubility of 47.6 µg/mL (≈ 140 µM). For `Cc1cc(NC(=O)COc2ccccc2C#N)no1`, the kinetic solubility stood at 11.2 µg/mL (≈ 43.5 µM). In the case of `COc1ccc(NC(=O)CSC2=NCCN2)cc1.Cl`, the kinetic solubility was above 45.3 µg/mL. In turn, `COc1ccc(-c2nc3ccccc3c(=O)n2CC(C)C)cc1` gave a solubility (kinetic) of 38.3 µg/mL (≈ 124 µM). Turning to `Nc1ccc(S(=O)(=O)[O-])c[nH+]1`, the solubility (kinetic) was above 26.1 µg/mL. Under `CCCCC(=O)NC(=S)Nc1ccc(NC(=O)C(C)C)c(OC)c1` stands 5.4 µg/mL (≈ 15.4 µM); under `COc1cccc(CNc2ccc(S(=O)(=O)N3CCCC3)cn2)c1`, 46 µg/mL (≈ 132 µM). The compound `CCC(C)c1ccc(NC(=O)c2[nH]c(C)c(C(C)=O)c2C)cc1` (centres undefined) came in with a kinetic solubility of 0.5 µg/mL (≈ 1.6 µM). Under `CC1CCCCN1C(=O)CCn1c(=O)oc2ccccc21` (centres undefined) stands above 43.3 µg/mL; under `COc1ccc(NC(=O)c2cc(-c3cccs3)on2)cc1`, 0.3 µg/mL (≈ 0.999 µM). The compound `Cc1ccccc1OCc1ccc(C(=O)N2CCOCC2)o1` registered a kinetic solubility of 41.2 µg/mL (≈ 137 µM). `Cn1cnc2cc(NCc3ccccc3O)ccc21` displayed a solubility (kinetic) of 36.9 µg/mL (≈ 146 µM). Take `Cc1ccc(CC2CC(=O)N(c3nc4ccccc4s3)C2=O)cc1` (centres undefined): the solubility (kinetic) came out at 10.3 µg/mL (≈ 30.6 µM).

Consider `O=C(NCC(c1cccs1)N1CCOCC1)c1cnc(Cl)c(Cl)c1` (centres undefined), for which the kinetic solubility is above 57.9 µg/mL. Turning to `N#C/C(=C\c1cccc(O)c1)C(=O)Nc1ccc2c(c1)OCCO2`, the solubility (kinetic) amounted to 2 µg/mL (≈ 6.21 µM).

With `Cc1ccccc1NC(=O)CCN1C(=O)c2ccccc2C1=O`, the kinetic solubility amounted to 15.3 µg/mL (≈ 49.6 µM). As for `CC1Oc2ccccc2N(Cc2cccc(F)c2)C1=O` (centres undefined), the kinetic solubility stood at 18.6 µg/mL (≈ 68.6 µM). As to `CCCS(=O)(=O)N1CCC(C(=O)NCCC(C)C)CC1`, the kinetic solubility is above 45.7 µg/mL. For `COc1cc(OC)cc(C(=O)NCC(=O)OC(C)C(=O)NC(C)C2CC3CCC2C3)c1` (centres undefined), the kinetic solubility was above 64.9 µg/mL. For `CC(C)(C)NC(=O)COC(=O)c1ccc(Cl)cc1O`, the kinetic solubility was found to be 7.3 µg/mL (≈ 25.5 µM). Under `Cc1ccc(C)c(NC(=O)CCc2ccc(C)o2)c1` stands 24.6 µg/mL (≈ 95.6 µM); under `O=C(Nc1ccc2cccnc2c1)c1ccc(Br)cc1`, 0.4 µg/mL (≈ 1.22 µM). For `O=C(COC(=O)c1cccs1)Nc1cccc(S(=O)(=O)N2CCCCC2)c1`, the kinetic solubility worked out at 9.6 µg/mL (≈ 23.5 µM). `O=C(Nc1ccc(Cl)cc1Cl)c1cc2ccccc2o1` gave a solubility (kinetic) below 0.7 µg/mL.

`CC(C)Oc1ccc(C(=O)CCN2CCOCC2)cc1` came in with a solubility (kinetic) of 32.8 µg/mL (≈ 118 µM).

`CCOC(=O)C(=O)N/N=C(/c1ccccc1)c1ccc(OC)cc1` returned a kinetic solubility above 49 µg/mL. Under `Cc1ccc(-c2nc(-c3ccncc3)no2)cc1Cl` stands below 0.2 µg/mL.

`COc1ccc(S(=O)(=O)N2CCN(CC(=O)NC(Cc3ccccc3)C(C)=O)CC2)cc1` (centres undefined): the kinetic solubility was above 68.9 µg/mL.

`CC1(NC(=S)Nc2ccccc2)CCS(=O)(=O)C1` (centres undefined): the solubility (kinetic) was above 42.7 µg/mL. The compound `CSCc1ccc(C(=O)NC(C)c2ccc(-n3ccnc3)cc2)cc1` (centres undefined) displayed a solubility (kinetic) of 42.1 µg/mL (≈ 120 µM). `Cc1cc(/C=C\c2ccccc2)nc2ccccc12`: the kinetic solubility was below 0.5 µg/mL. In the case of `Cc1ccc(/C=C(\NC(=O)c2ccccc2)C(=O)N2CCCCC2)cc1`, the kinetic solubility came out at 39.9 µg/mL (≈ 115 µM). `COCCNC(=S)N1CCN(c2nc3ccccc3s2)CC1` displayed a kinetic solubility of 35.3 µg/mL (≈ 105 µM). On to `Cc1cc(C)nc(Nc2ccccc2F)n1.Cl`, for which the solubility (kinetic) turned out to be 26.4 µg/mL. Turning to `CN(CC(=O)O)S(=O)(=O)c1ccc2c(c1)NC(=O)CC(=O)N2`, the kinetic solubility was above 49.1 µg/mL. `Cn1ccsc1=NC(=O)c1ccc([N+](=O)[O-])o1` returned a kinetic solubility of 18.4 µg/mL (≈ 72.7 µM).
